According to US7435555B2, “Asparagine hydroxylation of the CAD domain of a HIF protein” (Adelaide Research and Innovation Pty Ltd., priority 2001, dated 2008):

Experiments:
Type in all cases: cell-based, human
[1] = system: Gal4DBD/HIF-1α 727-826 CAD chimera; test: Gal4 response element luciferase reporter gene assay, GalDBD/HIF-1α CAD chimera; details: cells treated 16 h at normoxia
[2] = system: Gal4DBD/HIF-2α 774-874 CAD chimera; test: Gal4 response element luciferase reporter gene assay, GalDBD/HIF-2α CAD chimera; details: cells treated 16 h at normoxia
From the text: FIG. 3. Expression vectors for either the Gal4 DNA Binding Domain or the indicated GalDBD HIF-1α and HIF-2α CAD chimeric proteins were contransfected with a Gal4 response element containing luciferase reporter gene and an internal control renilla luciferase reporter gene. […] Data are the average of three transfections±standard deviation.
FIG. 6. […] A) Sequence comparisons show conservation of the critical Asn between HIF-1α and HIF-2α across species. […] HEK293T cells were transfected according to the protocol of FIG. 3A and data represent the average of triplicate transfections +/standard deviation. (C). The wild type and mutant Ga14DBD/HIF chimeras used in A) are expressed at the same levels during transient transfection. Whole cell extracts of control or transfected cells were separated by SDS-PAGE and proteins detected by immunoblotting with antibodies directed against the C-terminus of HIF-1α (C) or HIF2α.
Human embryonic kidney 293T and rat pheochromocytoma PC12 cells were maintained in Dulbecco's Modified Eagles Medium (DMEM) supplemented with 10% foetal calf serum. For transient transfections, cells were plated onto 24 well plates at a density of 2.0×10^4 cells/well. […] After 16 hrs treatment, cells were harvested, Iysed and extracts analysed using the Dual Luciferase Reporter Assay Kit as outlined by the manufacturer (Promega). […]

[3] = system: HIF-2α CAD Asn851 hydroxylation; test: Mass spectrometry of HIF-2α CAD purified from stable 293T cells (hydroxylation of Asn851); details: DP 100 μM, 3 h; MALDI-TOF
Procedure: FIG. 5. A) Mass spectrometry of the HIF-2α CAD purified from cells incubated in normoxia or subjected to hypoxia (<1% O2, 3 h) or DP (100 μM, 3 h) treatments. A & B) Magnified views of the MALDI-TOF spectra corresponding to hydroxylation (+16 Da) of the peptide […] [SED ID NO. 1], which appears in the normoxic but not hypoxic or DP treated samples. […] Fragments were also observed for the modified sequence at m/z values of +16 Da higher than Asn851-containing fragments of the unmodified sequence. The boundary of the coincident and +16 Da fragment ions is indicated by the symbol N+ on the fragment ion spectrum of the modified sequence.
Samples for MS analysis were isolated from a 293T stable cell line that expressed HIF-2α774-874. After normoxic culture or treatment with hypoxia or DP as specified, cells were washed once with PBS, then lysed with binding buffer (100 mM Na-Phosphate pH8.0, 8M Urea, 0.1% NP40, 0.15M NaCl2, 5 mM imidazole, 1 mM βMe, 0.05 mM Na3VO4, 0.1 mM NaF, 0.5 mM β-Glycerophosphate, protease inhibitors). […]
Tryptic digests were analyzed using a Bruker Reflex MALDI-TOF-MS operated in the positive ion reflector mode. MALDI-TOF-MS data were acquired and analyzed using the Bruker XMass suite of software (Lopaticki et al., 1998; Pitt et al., 2000; Gorman et al., 1997). […]

[4] = system: HIF-2α CAD; test: Immunoblot of HIF-2α CAD protein expression in stable transfected HEK 293T cells; details: treatment 3 h, anti-myc immunoblot
From the text: FIG. 4. A) Schematic showing domains of HIF-2α and the construct containing the CAD region fused to a 6xHis tag/myc epitope which was used to generate a stable expressing cell line. B) Protein expression of the HIF-2α CAD is not increased by hypoxia or DP treatment. […] The 293T control lane contains extract from cells stably transfected with blank expression vector. C) Sypro-Ruby (Bio-Rad) stained SDSPAGE gel showing an example of HIF-2α CAD purified from stable transfected cells. Extracts from non transfected cells subjected to the same purification procedure lack the HIF-2α CAD band.The higher molecular weight contaminant that is co-purified by the procedure was identified as 60S ribosomal protein L27A by mass spectrometry.
Isolated cell pellets were lysed in whole cell extract (WCE) buffer (10 mM Tris pH7.9, 0.42M NaCl2, 0.5% NP40, 25% Glycerol, 0.2 mM EDTA, 1.5 mM MgCl2, 1 mM DTT, protease inhibitors) for 10 min at 4° C. Lysed extracts were then clarified by centrifugation at 12,000 g for 15 min. The protein concentration of clarified lysates was determined using the Bradford assay (Biorad). Protein samples were then resolved on 12.5% Tris-Tricine gels. For the HIF-2α774-874 stable line, 10 μg of WCE was analysed by immunoblotting with the anti-myc 9E10 monoclonal antibody. […]

Row | Compound | activity of the Gal4DBD/HIF-1α CAD chimera on treatment of cells [1] | activity of the Gal4DBD/HIF-2α CAD chimera on treatment of cells [2] | +16 Da (hydroxylated) form of peptide 846-YDCEVNVPVPGSSTLLQGR-864 [3] | protein expression of the HIF-2α CAD [4]
1 | COC(=O)CNC(=O)C(=O)OC [DMOG, dimethyl-oxalylglycine] | activation of the Gal4DBD/HIF-1α and Gal4DBD/HIF-2α CAD chimeras to a similar extent as that seen during treatment with hypoxia | activation of the Gal4DBD/HIF-1α and Gal4DBD/HIF-2α CAD chimeras to a similar extent as that seen during treatment with hypoxia |  | 
2 | c1ccc(-c2ccccn2)nc1 [DP, 2,2′-dipyridyl] |  | induces activity of the CADs | complete lack of the +16 mass increase | not increased
